These results are taken from US20070117842A1, “Polymorph of 4-[3-chloro-4-(cyclopropylaminocarbonyl)aminophenoxy]-7-methoxy-6- quinolinecarboxamide and a process for the preparation of the same” (priority 2003, published 2007).

In assay [1] the test system is small cell lung cancer cell line H-526 expressing c-Kit kinase. Kind of assay: Effect on cell proliferation stimulated by SCF. Type of assay: cell-based. Conditions: Homo sapiens, NCI-H526; H-526 cells, SCF stimulation, 7th day, Cell Counting Kit-8; read-out: IC50 (concentration required for 50% inhibition of the cell proliferation). The method, then:
After culturing, H-526 cells were washed with PBS three times and were suspended in an RPMI1640 medium containing 0.1% BSA (Sigma Corporation) (hereinafter abbreviated as “BSA-RPMI1640”) at 1.0×10^5 cells/ml. […] After color development, the absorbance of each well was determined using a MTP-32 plate reader (Colona Electric Co., Ltd.) at a measuring wavelength of 450 nm and at a reference wavelength of 660 nm. The absorbance of each well was subtracted by the absorbance of the well without addition of SCF, and then the ratio of the absorbance of the well with addition of the test substance to the ratio of the absorbance of the well without addition of the test substance was determined. This ratio was used to calculate the concentration of the test substance required for 50% inhibition of the cell proliferation (IC50).
(In general: Tetrazolium dyes change colour on reduction, which living cells bring about.)

The target of assay [2] is T1, c-Kit kinase (Homo sapiens, UniProt P10721). Kind of assay: Effect on c-Kit kinase phosphorylation in H-526 tumor transplanted to nude mice (immunoblot). On the set-up: from tissue; host or cells: H-526 tumour xenograft extracted from Balb/c nu/nu mice. As to conditions: H-526 tumor in nude mice. The format is in vivo, Balb/c nu/nu mice. The method, then: 0.1 ml of a H-526 cell suspension prepared at a concentration of 5.0×10^7 cells/ml, was transplanted to the subcutaneous parts of the right latus of 6-week female Balb/c nu/nu mice (purchased from Charles River Laboratories, Inc.). The animals were then divided into a vehicle control group (solvent-administered group) and a test substance (4-(3-chloro-4-(cyclopropylaminocarbonyl)aminophenoxy)-7-methoxy-6-quinolinecarboxamide) administered group at the point the tumor volume reached 300-1000 mm^3: the test substance was administered to the latter group. The extracted tumor was placed in a cell lysate buffer (50 mM HEPES (pH 7.4), 150 mM NaCl, 10% glycerol, 1% Triton X-100, 1.5 mm MgCl2, 1 mM EDTA, 100 mM NaF, 1 mM PMSF, 10 μg/ml aprotinin, 50 μg/ml leupeptin, 1 μg/ml peptatin A, 1 mM Na3VO4, 25 mM , βglycerophosphate, and phosphatase inhibitor cocktail 11) and homogenized. After centrifugation, the supernatant was protein quantified, and a 3×SDS sample loading buffer was added to prepare a cell lysate sample. Subsequently, the cell lysate was heat-treated at 94° c. for 10 minutes and cryopreserved at −20° c.
T1 sequence (P10721 26-976): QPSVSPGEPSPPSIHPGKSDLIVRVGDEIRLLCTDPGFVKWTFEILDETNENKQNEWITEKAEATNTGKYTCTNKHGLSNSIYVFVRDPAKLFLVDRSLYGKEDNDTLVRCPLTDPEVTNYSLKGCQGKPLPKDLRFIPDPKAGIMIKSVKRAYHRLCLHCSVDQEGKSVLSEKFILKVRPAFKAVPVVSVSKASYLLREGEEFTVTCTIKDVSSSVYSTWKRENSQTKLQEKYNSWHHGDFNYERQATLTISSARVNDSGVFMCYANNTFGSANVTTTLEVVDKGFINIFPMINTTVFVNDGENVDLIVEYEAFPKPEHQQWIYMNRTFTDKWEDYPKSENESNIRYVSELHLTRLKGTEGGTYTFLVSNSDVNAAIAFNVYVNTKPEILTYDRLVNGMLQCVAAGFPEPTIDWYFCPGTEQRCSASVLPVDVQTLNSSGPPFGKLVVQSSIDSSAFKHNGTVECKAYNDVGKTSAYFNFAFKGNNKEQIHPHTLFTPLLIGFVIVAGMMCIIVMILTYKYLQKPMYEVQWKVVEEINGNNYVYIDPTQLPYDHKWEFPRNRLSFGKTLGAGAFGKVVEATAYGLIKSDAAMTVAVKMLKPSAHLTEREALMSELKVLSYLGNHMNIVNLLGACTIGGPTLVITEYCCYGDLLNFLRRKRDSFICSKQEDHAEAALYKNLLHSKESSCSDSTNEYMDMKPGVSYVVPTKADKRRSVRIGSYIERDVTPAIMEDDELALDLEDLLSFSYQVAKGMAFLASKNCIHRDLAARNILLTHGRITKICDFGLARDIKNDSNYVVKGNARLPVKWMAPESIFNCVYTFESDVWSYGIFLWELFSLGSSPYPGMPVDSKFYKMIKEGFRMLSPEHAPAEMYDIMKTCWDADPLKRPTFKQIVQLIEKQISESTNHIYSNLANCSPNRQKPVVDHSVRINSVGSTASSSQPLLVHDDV
The cell lysate sample which was equivalent to 30 μg of protein was electrophoresed on a 4-20% gradient polyacrylamide gel (Daiichi Pure Chemicals Co., Ltd.). After electrophoresis, the sample was transferred to a PVDF membrane (Amersham Pharmacia Biotech Inc.) for 3 hours. In order to assay phosphorylated c-Kit, c-Kit and β-actin, immunoblot was performed using a phospho-c-kit (Tyr719) antibody (Cell Signaling Technologies, Inc.), an anti c-Kit antibody (Cell Signaling Technologies, Inc.) and an anti β-actin antibody (Sigma) as a primary antibody and an anti-rabbit IgG, HRP-linked antibody (Cell Signaling Technologies, Inc.) as a secondary antibody. After the membrane was washed, it was developed with a Super Signal (Pierce Biotechnology, Inc.).

In assay [3] the target is T1, c-Kit kinase. Kind of assay: Effect on c-Kit kinase phosphorylation by SCF stimulation (immunoblot). Type of assay: cell-based. Also on record: in the small cell lung cancer cell line H-526 expressing c-Kit kinase; host or cells: H-526 small cell lung cancer cells. As to conditions: H-526 cells, 1 hour with test substance, SCF 5 minutes, phospho-c-kit (Tyr719) immunoblot. The method, then: 4-(3-Chloro-4-(cyclopropylaminocarbonyl)aminophenoxy)-7-methoxy-6-quinolinecarboxamide was tested for its effect on the phosphorylation of the c-Kit kinase molecule by SCF stimulation in the small cell lung cancer cell line H-526 expressing c-Kit kinase.
H-526 cells were cultured in a 5% CO2 incubator (37° c.) using an RPMI1640 medium containing 10% FCS. After culturing, H-526 cells were washed with PBS three times and were suspended in a BSA-RPMI1640 medium at 5.0×10^5 cells/ml. Each 1 ml of this cell suspension was inoculated to the well of a 24-well plate and the suspension was cultured in a 5% CO2 incubator (37° c.) for 6 hours. After 6-hours culturing, 1 ml of BSA-RPMI1640 containing a diluted test substance (4-(3-Chloro-4-(cyclopropylaminocarbonyl)aminophenoxy)-7-methoxy-6-quinolinecarboxamide) was added to each well and culturing was carried out in a 5% CO2 incubator (37° c.) for 1 hour. Additional culturing was then carried out in a 5% CO2 incubator (37° c.) for 5 minutes after the addition of 10 μl of SCF (10 μg/ml, R&D Corporation). After 5-minutes culturing, the cells were washed with PBS and 100 μl of SDS sample loading buffer was added to the cells to prepare a cell lysate sample. After the sample was heat-treated at 94° c. for 10 minutes, it was cryopreserved at −20° c. […]
Background: Immunoblotting shows a protein as a band on a membrane.

For the next assay, the system named is H-526 tumor. Kind of assay: Effect on growth of H-526 tumor transplanted to nude mice. The format is in vivo, Balb/c nu/nu mice. The method, then: H-526 cells were cultured in a 5% CO2 incubator (37° c.) using an RPMI1640 medium containing 10% FCS. After the culture medium was collected, H-526 cells were washed with PBS twice and were suspended in PBS at 5.0×10^7 cells/ml. This cell suspension (0.1 ml) was transplanted to the subcutaneous parts of the right flank of 6-week female Balb/c nu/nu mice (purchased from Charles River Laboratories, Inc.). After transplantation, administration of a test substance (4-(3-chloro-4-(cyclopropylaminocarbonyl)aminophenoxy)-7-methoxy-6-quinolinecarboxamide) was started at the point the tumor volume reached approximately 150 mm^3, and thus, oral administration was conducted twice daily for a period of 14 days. The test substance was suspended in a 0.5% methylcellulose solution (Wako Pure Chemical Industries Co., Ltd.) so as to give a dose of 0.1 ml/10 g body weight.
The tumor volume was measured with a caliper twice weekly during the administration period. The long and short diameters of the tumor were measured with a caliper and the tumor volume was calculated according to the equation: ½×long diameter×short diameter×short diameter. Here, the experiment was conducted in a vehicle control group of 10 animals (solvent-administered group) as well as in a test substance administered group of 5 animals.

On to `COc1cc2nccc(Oc3ccc(NC(=O)NC4CC4)c(Cl)c3)c2cc1C(N)=O` [4-(3-chloro-4-(cyclopropylaminocarbonyl)aminophenoxy)-7-methoxy-6-quinolinecarboxamide], for which, in assay [1], the IC50 worked out at 9.46 nM. Further, on c-Kit kinase [2] (30 or 100 mg/kg), the “c-Kit and β-actin in tumor tissue” value is “remained unchanged”; the “phosphorylated c-Kit in tumor tissue” value is “completely inhibited phosphorylation”. The “c-Kit kinase phosphorylation in the presence of SCF” value on c-Kit kinase [3] is “suppressed the c-Kit kinase phosphorylation that would take place in the presence of SCF in a concentration-dependent manner”. For the same compound, the “growth of the nude mouse transplanted H-526 tumor (tumor volume)” value with H-526 tumor (oral, twice daily for 14 days) is on record as “suppressed the growth of the nude mouse transplanted H-526 tumor in a dose-dependent manner”.
Take `Cc1ccc(NC(=O)c2ccc(CN3CCN(C)CC3)cc2)cc1Nc1nccc(-c2cccnc2)n1` [STI571, reference compound]: the “phosphorylated c-Kit in tumor tissue” value at c-Kit kinase [2] (160 mg/kg) is on record as “partially inhibited phosphorylation”. In the assay with H-526 tumor (H-526 tumor in nude mice, 160 mg/kg), the anti-tumor effect result was “showed little anti-tumor effect”.
